Two compounds from patent publication US20090192149A1, “Imidazo Compounds” (SPEEDEL EXPERIMENTA AG, priority 2006, published 2009) can be followed below.

For orientation: IC50 means the concentration needed to halve the response being measured.

Molecules are shown by their SMILES.

This test deals with T1, recombinant human Cyp19 enzyme (Homo sapiens, UniProt P11511).
T1 construct: purchased Becton Dickinson Biosciences, San Jose, Calif., USA
T1 sequence (P11511 1-503): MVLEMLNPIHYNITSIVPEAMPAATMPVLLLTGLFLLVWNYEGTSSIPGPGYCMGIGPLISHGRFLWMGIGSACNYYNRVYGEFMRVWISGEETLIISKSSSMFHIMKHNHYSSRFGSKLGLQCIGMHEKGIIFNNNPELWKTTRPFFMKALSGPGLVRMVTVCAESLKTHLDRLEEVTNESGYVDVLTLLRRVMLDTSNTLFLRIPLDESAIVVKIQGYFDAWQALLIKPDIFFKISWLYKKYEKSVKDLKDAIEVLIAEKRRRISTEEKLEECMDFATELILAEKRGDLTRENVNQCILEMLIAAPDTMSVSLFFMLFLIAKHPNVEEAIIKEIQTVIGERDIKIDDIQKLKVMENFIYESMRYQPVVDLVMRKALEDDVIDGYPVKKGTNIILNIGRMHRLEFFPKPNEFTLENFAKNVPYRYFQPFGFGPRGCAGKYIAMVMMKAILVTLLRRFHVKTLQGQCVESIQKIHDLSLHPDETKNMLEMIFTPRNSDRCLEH
Briefly: Cyp19/MFC high throughput inhibition kit (Becton Dickinson). The test is classed as biochemical. To be noted: recombinant human Cyp19 supersomes, MFC substrate. The method, then: A compound of formula (I) is to be understood as a compound having a specific configuration around the designated asymmetric carbon atom labelled “*”. If a synthesis method is used which leads to racemic compounds, the racemate resolution is carried out in accordance with conventional methods, such as via a chiral HPLC column. […] The aforementioned activity can, readily and as described below, be determined by using a commercial Cyp19 enzyme inhibition kit, preferably the Cyp19/methoxy-4-trifluoromethyl-coumarin (MFC) high throughput inhibition kit (Becton Dickinson Biosciences, San Jose, Calif., USA) as described hereafter. In the above-mentioned inhibition kit, compounds of the formula (I) show an inhibiting activity which is at least 10 times higher, but preferably 20 times higher, or more preferably 40 times higher, than the substances of the formula (I) with the opposite configuration around the asymmetric carbon atom labelled “*”. A higher inhibiting activity corresponds to a lower IC50 value.
These effects are demonstrable in in vitro assay tests using cell-free and cellular systems. […] The Cyp19/Methoxy-4-trifluoromethyl-coumarin (MFC) high throughput inhibition kit (Becton Dickinson Biosciences, San Jose, Calif., USA), for example, is designed to screen for potential inhibitors of Cyp19 catalytic activity in a 96-well format. […]

On to `N#Cc1ccc(C2COCc3cncn32)cc1` (single isomer, unassigned) [Example 1, 4-(5,6-Dihydro-8H-imidazo[5,1-c][1,4]oxazin-5-yl)benzonitrile], for which the IC50 is 0.0048 µM.
Then `N#Cc1ccc(C2COCc3cncn32)cc1` (centres unmarked) [antipode of 1], with 8.35 µM.
